# According to patent US20020137929A1, “1 - (3-heterocyclylphenyl) isothiourea, -isourea, -guanidine and -amidine herbicidal agents” (Intellectual Property Department, BASF Aktiengesellschaft, priority 1998, published 2002):
# Experiments:
# CYPIR (Rice Flatsedge) [1] = test: Postemergence weed control under flooded paddy conditions; assay type: in vivo, Cyperus iria; conditions: postemergence weeds
# How it was run: (§1)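 Containers holding 3–5 cm weeds and rice at 1.5–2.5 leaves are flooded to 1.5–3 cm above soil. Compound in 50/50 v/v aqueous/acetone is then added directly to the water, about 0.0313–0.500 kg/ha. Plants are kept in the greenhouse and rated 0–9 visually at 3–4 weeks.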
# ABUTH (Velvetleaf) = test: Postemergence herbicidal evaluation; assay type: in vivo, Abutilon theophrasti; conditions: for ABUTH herbicidal rating: postemergence
# How it was run: (§2)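 Seedlings grown about two weeks were sprayed at 40 psi with compound dispersed in 50/50 acetone/water plus 0.5% TWEEN 20, at about 0.0156 to 0.500 kg/ha. Plants were kept in the greenhouse and scored 4–5 weeks later on a 0–9 visual scale against untreated controls.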
# ZEAMX (Corn, Field) = test: Preemergence herbicidal evaluation; assay type: in vivo, Zea mays; conditions: rated 4-5 weeks after treatment
# How it was run: (§3)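 Seeds were mixed with potting soil and planted on about one inch of soil, then sprayed with test compound in aqueous acetone at about 0.0156 to 0.500 kg per hectare. Plants grew under standard greenhouse care and were visually rated 0-9 against untreated controls 4-5 weeks post-treatment.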
# GALAP (Galium) = test: Postemergence herbicidal evaluation; assay type: in vivo, Galium aparine; conditions: for GALAP herbicidal rating: postemergence
# How it was run: as §2
# [2] = test system: IPOHE (Morningglory, Ivyleaf); test: Preemergence herbicidal evaluation; assay type: in vivo, Ipomoea hederacea; conditions: rated 4-5 weeks after treatment
# How it was run: as §3
# [3] = test system: TRZAWR (Wheat, Winter, cv Riband); test: Preemergence herbicidal evaluation; assay type: in vivo, Triticum aestivum; conditions: rated 4-5 weeks after treatment
# How it was run: as §3
# CYPIR (Rice Flatsedge) [4] = test: Preemergence weed control under flooded paddy conditions; assay type: in vivo, Cyperus iria; conditions: rated 3-4 weeks after treatment
# How it was run: (§4)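 Silt loam, seeds in top 0.5 cm; flood held 1.5-3 cm; test cpd as acetone/water 50/50 into flood water, ~0.0313-0.500 kg/ha a.i.; greenhouse 3-4 wk; visual 0-9 score vs control.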
# ORYSAT (Rice, Tebonnet) = test: Postemergence herbicidal evaluation; assay type: in vivo, Oryza sativa, (L.) Tebonnet; conditions: for ORYSAT herbicidal rating: postemergence
# How it was run: as §2
# ECHCG (Barnyardgrass) = test: Postemergence herbicidal evaluation; assay type: in vivo, Echinochloa crus-galli; conditions: for ECHCG herbicidal rating: postemergence
# How it was run: as §2
# [5] = test system: SAGPY (Arrowhead (Pygmaea)); test: Postemergence weed control under flooded paddy conditions; assay type: in vivo, Sagittaria pygmaea; conditions: postemergence weeds
# How it was run: as §1
# CYPSE (Flatsedge) = test: as above; assay type: in vivo, Cyperus serotinus; conditions: postemergence weeds
# How it was run: as §1
# SETVI (Foxtail, Green) = test: Postemergence herbicidal evaluation; assay type: in vivo, Setaria viridis; conditions: for SETVI herbicidal rating: postemergence
# How it was run: as §2
# [6] = test system: ECHORC (Watergrass (Calif.)); test: Preemergence weed control under flooded paddy conditions; assay type: in vivo, Echinochloa oryzoides; conditions: rated 3-4 weeks after treatment
# How it was run: as §4
# [7] = Rate 0.0313 kg/ha, rated 3 to 4 weeks after treatment
# [8] = Rate 0.0625 kg/ha, rated 3 to 4 weeks after treatment
# [9] = Rate 0.1250 kg/ha, rated 3 to 4 weeks after treatment
# [10] = Rate 0.2500 kg/ha, rated 3 to 4 weeks after treatment
# [11] = rate 0.1250 kg/ha, 3-4 weeks after treatment
# [12] = rate 0.2500 kg/ha, 3-4 weeks after treatment
compound,measurement,setting,value
"CCOC(=O)[C@H](C)N1C(=O)CSC1=Nc1cc(-n2c(=O)cc(C(F)(F)F)n(C)c2=O)c(F)cc1Cl [Compound 76, Ethyl 2-{{2-chloro-5-[3,6-dihydro-3-methyl-2,6-dioxo-4-(trifluoromethyl)-1(2H)-pyrimidinyl]-4-fluorophenyl}imino}-α-methyl-4-oxo-3-thiazolidineacetate, L-]",Herbicidal rating CYPIR,CYPIR (Rice Flatsedge) [1]; [7],0.0
same,Herbicidal rating CYPIR,CYPIR (Rice Flatsedge) [1]; [8],0.0
same,Herbicidal rating CYPIR,CYPIR (Rice Flatsedge) [1]; [9],0.0
same,Herbicidal rating CYPIR,CYPIR (Rice Flatsedge) [1]; [10],6.0
same,ABUTH herbicidal rating,ABUTH (Velvetleaf); rate 0.0158 kg/ha,9.0
same,ABUTH herbicidal rating,ABUTH (Velvetleaf); rate 0.0315 kg/ha,9.0
same,ABUTH herbicidal rating,ABUTH (Velvetleaf); rate 0.0630 kg/ha,9.0
same,Preemergence herbicidal rating ZEAMX,"ZEAMX (Corn, Field); rate 0.0156 kg/ha",0.0
same,Preemergence herbicidal rating ZEAMX,"ZEAMX (Corn, Field); rate 0.0313 kg/ha",1.0
same,Preemergence herbicidal rating ZEAMX,"ZEAMX (Corn, Field); rate 0.0625 kg/ha",5.0
same,Preemergence herbicidal rating ZEAMX,"ZEAMX (Corn, Field); rate 0.1250 kg/ha",7.0
same,Preemergence herbicidal rating ZEAMX,"ZEAMX (Corn, Field); rate 0.2500 kg/ha",7.0
same,GALAP herbicidal rating,GALAP (Galium); rate 0.0158 kg/ha,1.0
same,GALAP herbicidal rating,GALAP (Galium); rate 0.0315 kg/ha,6.0
same,GALAP herbicidal rating,GALAP (Galium); rate 0.0630 kg/ha,7.0
same,Preemergence herbicidal rating IPOHE,[2]; rate 0.0156 kg/ha,0.0
same,Preemergence herbicidal rating IPOHE,[2]; rate 0.0313 kg/ha,0.0
same,Preemergence herbicidal rating IPOHE,[2]; rate 0.0625 kg/ha,0.0
same,Preemergence herbicidal rating IPOHE,[2]; rate 0.1250 kg/ha,9.0
same,Preemergence herbicidal rating IPOHE,[2]; rate 0.2500 kg/ha,9.0
same,Preemergence herbicidal rating TRZAWR,[3]; rate 0.0156 kg/ha,0.0
same,Preemergence herbicidal rating TRZAWR,[3]; rate 0.0313 kg/ha,0.0
same,Preemergence herbicidal rating TRZAWR,[3]; rate 0.0625 kg/ha,3.0
same,Preemergence herbicidal rating TRZAWR,[3]; rate 0.1250 kg/ha,7.0
same,Preemergence herbicidal rating TRZAWR,[3]; rate 0.2500 kg/ha,9.0
same,CYPIR herbicidal effect rating,CYPIR (Rice Flatsedge) [4]; 0.0313 kg/ha,0.0
same,CYPIR herbicidal effect rating,CYPIR (Rice Flatsedge) [4]; 0.0625 kg/ha,0.0
same,CYPIR herbicidal effect rating,CYPIR (Rice Flatsedge) [4]; 0.1250 kg/ha,0.0
same,CYPIR herbicidal effect rating,CYPIR (Rice Flatsedge) [4]; 0.2500 kg/ha,6.0
same,ORYSAT herbicidal rating,"ORYSAT (Rice, Tebonnet); rate 0.0158 kg/ha",3.0
same,ORYSAT herbicidal rating,"ORYSAT (Rice, Tebonnet); rate 0.0315 kg/ha",4.0
same,ORYSAT herbicidal rating,"ORYSAT (Rice, Tebonnet); rate 0.0630 kg/ha",5.0
same,ECHCG herbicidal rating,ECHCG (Barnyardgrass); rate 0.0158 kg/ha,1.0
same,ECHCG herbicidal rating,ECHCG (Barnyardgrass); rate 0.0315 kg/ha,1.0
same,ECHCG herbicidal rating,ECHCG (Barnyardgrass); rate 0.0630 kg/ha,2.0
same,Herbicidal rating SAGPY,[5]; [7],0.0
same,Herbicidal rating SAGPY,[5]; [8],0.0
same,Herbicidal rating SAGPY,[5]; [9],4.0
same,Herbicidal rating SAGPY,[5]; [10],4.0
same,Herbicidal rating CYPSE,CYPSE (Flatsedge); [7],2.0
same,Herbicidal rating CYPSE,CYPSE (Flatsedge); [8],2.0
same,Herbicidal rating CYPSE,CYPSE (Flatsedge); [9],2.0
same,Herbicidal rating CYPSE,CYPSE (Flatsedge); [10],3.0
same,SETVI herbicidal rating,"SETVI (Foxtail, Green); rate 0.0158 kg/ha",1.0
same,SETVI herbicidal rating,"SETVI (Foxtail, Green); rate 0.0315 kg/ha",2.0
same,SETVI herbicidal rating,"SETVI (Foxtail, Green); rate 0.0630 kg/ha",9.0
same,ECHORC herbicidal effect rating,[6]; 0.0313 kg/ha,4.0
same,ECHORC herbicidal effect rating,[6]; 0.0625 kg/ha,7.0
same,ECHORC herbicidal effect rating,[6]; 0.1250 kg/ha,9.0
same,ECHORC herbicidal effect rating,[6]; 0.2500 kg/ha,9.0
"CCOP(=O)(CN1C(=O)CSC1=Nc1cc(-n2c(=O)cc(C(F)(F)F)n(C)c2=O)c(F)cc1Cl)OCC [Compound 35, Diethyl {{2-{{2-chloro-5-[3,6-dihydro-3-methyl-2,6-dioxo-4-(trifluoromethyl)-1(2H)-pyrimidinyl]-4-fluorophenyl}imino}-4-oxo-3-thiazolidinyl}methyl}phosphonate]",Herbicidal rating CYPIR,CYPIR (Rice Flatsedge) [1]; [11],0.0
same,Herbicidal rating CYPIR,CYPIR (Rice Flatsedge) [1]; [12],0.0
same,Postemergence herbicidal rating ABUTH,ABUTH (Velvetleaf); Rate 0.0158 kg/ha,9.0
same,Postemergence herbicidal rating ABUTH,ABUTH (Velvetleaf); Rate 0.0315 kg/ha,9.0
same,Postemergence herbicidal rating ABUTH,ABUTH (Velvetleaf); Rate 0.0630 kg/ha,9.0
same,Preemergence herbicidal rating ZEAMX,"ZEAMX (Corn, Field); rate 0.0625 kg/ha",0.0
same,Preemergence herbicidal rating ZEAMX,"ZEAMX (Corn, Field); rate 0.1250 kg/ha",0.0
same,Preemergence herbicidal rating ZEAMX,"ZEAMX (Corn, Field); rate 0.2500 kg/ha",0.0
same,Postemergence herbicidal rating GALAP,GALAP (Galium); Rate 0.0158 kg/ha,4.0
same,Postemergence herbicidal rating GALAP,GALAP (Galium); Rate 0.0315 kg/ha,5.0
same,Postemergence herbicidal rating GALAP,GALAP (Galium); Rate 0.0630 kg/ha,5.0
same,Preemergence herbicidal rating IPOHE,[2]; rate 0.0625 kg/ha,0.0
same,Preemergence herbicidal rating IPOHE,[2]; rate 0.1250 kg/ha,3.0
same,Preemergence herbicidal rating IPOHE,[2]; rate 0.2500 kg/ha,9.0
same,Preemergence herbicidal rating TRZAWR,[3]; rate 0.0625 kg/ha,0.0
same,Preemergence herbicidal rating TRZAWR,[3]; rate 0.1250 kg/ha,1.0
same,Preemergence herbicidal rating TRZAWR,[3]; rate 0.2500 kg/ha,3.0
same,Herbicidal rating CYPIR,CYPIR (Rice Flatsedge) [4]; 0.1250 kg/ha,0.0
same,Herbicidal rating CYPIR,CYPIR (Rice Flatsedge) [4]; 0.2500 kg/ha,0.0
same,Postemergence herbicidal rating ORYSAT,"ORYSAT (Rice, Tebonnet); Rate 0.0158 kg/ha",2.0
same,Postemergence herbicidal rating ORYSAT,"ORYSAT (Rice, Tebonnet); Rate 0.0315 kg/ha",3.0
same,Postemergence herbicidal rating ORYSAT,"ORYSAT (Rice, Tebonnet); Rate 0.0630 kg/ha",3.5
same,Postemergence herbicidal rating ECHCG,ECHCG (Barnyardgrass); Rate 0.0158 kg/ha,0.0
same,Postemergence herbicidal rating ECHCG,ECHCG (Barnyardgrass); Rate 0.0315 kg/ha,0.0
same,Postemergence herbicidal rating ECHCG,ECHCG (Barnyardgrass); Rate 0.0630 kg/ha,1.0
same,Herbicidal rating SAGPY,[5]; [11],0.0
same,Herbicidal rating SAGPY,[5]; [12],3.0
same,Herbicidal rating CYPSE,CYPSE (Flatsedge); [11],0.0
same,Herbicidal rating CYPSE,CYPSE (Flatsedge); [12],0.0
same,Postemergence herbicidal rating SETVI,"SETVI (Foxtail, Green); Rate 0.0158 kg/ha",0.0
same,Postemergence herbicidal rating SETVI,"SETVI (Foxtail, Green); Rate 0.0315 kg/ha",2.0
same,Postemergence herbicidal rating SETVI,"SETVI (Foxtail, Green); Rate 0.0630 kg/ha",4.0
same,Herbicidal rating ECHORC,[6]; 0.1250 kg/ha,3.0
same,Herbicidal rating ECHORC,[6]; 0.2500 kg/ha,6.0
